{
  "source": "paper PMC11505038",
  "about": "“Kalata B1 Enhances Temozolomide Toxicity to Glioblastoma Cells” (Biomedicines, 2024)",
  "key": {"[1]": {"test_system": "U-87 MG glioblastoma cells", "assay": "MTT co-exposure of synthetic Kalata B1 and TMZ in U-87 MG cells", "format": "cell-based, human", "details": "TMZ 100 µM + synthetic Kalata B1 0.5 µM, MTT 72 h, ANOVA/Tukey", "procedure": "To calculate TMZ IC50 values in each cell line, TMZ was dissolved in DMSO at a stock concentration of 103 mM, which was then diluted into culture medium on the day of use, with the DMSO final concentration always less than 0.1%. The following concentrations of TMZ were used in the experiments: 0.5, 5, 50, 500, 2500, 5000 μM. The media were sterilized for each treatment media with a 0.22 μm filter before they were added to cell cultures. […]\nIn accordance with the methods developed by Mosmann and colleagues, the MTT assay was conducted using the Roche cell proliferation kit (Cat. No. 11465007001). […] The MTT is originally a yellow tetrazolium salt that undergoes a colorimetric change to purple formazan crystals, and the change in absorbance can be measured as an indicator of cell viability/proliferation. […]\nFigure 8 Synthetic Kalata B1 increased TMZ-induced cell death in U-87 MG glioblastoma cultures. To determine if synthetic Kalata B1 (K) enhances TMZ (T)-induced cell death in U-87 MG cells, MTT was measured after incubating the cell cultures with concentrations of K (0.5, 1.0, 2.0, and 4.0 μM) and T (100, 200, 400, and 800 μM) both alone and when co-exposed to synthetic Kalata B1 and TMZ as illustrated in panels (A–M). […] Cell viability was measured using MTT and expressed as a percentage of control cultures (culture medium with DMSO only). […]"}, "[2]": {"assay": "Human serum stability assay (UPLC-MS)", "details": "37 °C", "procedure": "Established protocols were used to analyze peptide stability in human serum isolated from male AB plasma (Sigma-Aldrich). Briefly, thawed plasma was centrifuged for 10 min at 15,000× g to concentrate lipids. The supernatant was carefully removed with a Pasteur pipette and incubated for 15 min at 37 °C, 5% CO2. […] Controls were synthetic Kalata B1 or TMZ in PBS that were incubated in parallel with human serum test compounds. Serum proteins were denatured with urea (final concentration of 3M) at 4 °C for 10 min., at each time point. Afterwards, trichloroacetic acid (7% final v/v) was added for 10 min to precipitate the proteins. Each sample was centrifuged for 10 min at 15,000× g; the supernatant was removed an evaluated in triplicate using UPLC-MS.\nWe conducted peptide stability assays in human serum isolated from male AB plasma and then analyzed with UPLC-MS. Synthetic Kalata B1 and TMZ were incubated with human serum and the portion of the peptide remaining was quantified by calculating the area of the respective elution peak in UPLC-MS, compared to the control.\nPercentage of Kalata B1 and TMZ remaining upon incubation with human serum. The portion of serum-treated peptide remaining was determined by calculating the area of the respective elution peak in UPLC-MS and comparing it with the control without incubation. Data points are means ± SEM."}, "[3]": {"test_system": "T-98G human glioblastoma cells", "assay": "cells", "details": "read-out: IC50 (μM) ± S.D.; T-98G, MTT, 72 h, 6000 cells/well, best fit nonlinear regression, triplicate wells, n = 3", "procedure": "(§1) SH-SY5Y human neuroblastoma cells (population doubling (PD) 20−24), T-98G, and U-87 MG human glioblastoma cells were removed from cryogenic storage, thawed rapidly in a water bath (37 °C) and reconstituted in 75 cm^2 flasks. For SH-SY5Y, the following media were used: Dulbecco’s modified Eagle’s medium/Nutrient F12 Ham (Sigma-Aldrich, Cat. No. D8437) containing 10% heat-inactivated fetal bovine serum, 4 mM L-glutamine, 100 U/mL penicillin, and 100 μg/mL streptomycin. For U-87 MG and T-98G Eagle’s minimal essential medium (ATCC: The Global Bioresource Center, Cat. No. ATCC 30-2003), containing 10% heat-inactivated fetal bovine serum, 4 mM L-glutamine, 100 U/mL penicillin, and 100 μg/mL streptomycin were used.\n(§2) Cells were incubated at 37 °C in a humidified atmosphere of 5% CO2 and 95% air until recovered and ready for passaging (approximately 4 days). At between 80% and 90% confluence, the cells were trypsinized with warm (37 °C) sterile 0.5% Trypsin-EDTA (Thermo Fisher, Cat. No. 15400054) and passaged into 175 cm^2 flasks, where they were left to multiply until they reached 80−90% confluence. To plate cells: cultures were trypsinized, resuspended in 20 mL sterile PBS, counted using a cell counter (Olympus cell counter model R1), and plated in 96-well plates at an optimal density of 6000 cells/well in the designated culture media. The cells were left to adhere overnight before treatment the following day, when the culture medium was removed and replaced with the treatment medium. All incubations were conducted in triplicate wells and repeated at least three times (n = 3).\n(§3) To calculate TMZ IC50 values in each cell line, TMZ was dissolved in DMSO at a stock concentration of 103 mM, which was then diluted into culture medium on the day of use, with the DMSO final concentration always less than 0.1%. The following concentrations of TMZ were used in the experiments: 0.5, 5, 50, 500, 2500, 5000 μM. The media were sterilized for each treatment media with a 0.22 μm filter before they were added to cell cultures. To determine the IC50 values for each cyclotide in each cell type, cyclotides were dissolved into 10% DMSO and then dilutions used to screen cyclotides with a final DMSO concentration of less than 0.1% The following concentrations of cyclotides were used: 0.1, 1, 5, 10 μM. For co-exposure experiments, a simultaneous exposure of cyclotide and TMZ at each respective dose was added to cell cultures (100 μL final volume per well).\n(§4) In accordance with the methods developed by Mosmann and colleagues, the MTT assay was conducted using the Roche cell proliferation kit (Cat. No. 11465007001). Briefly, cells that are active can cleave MTT. The MTT is originally a yellow tetrazolium salt that undergoes a colorimetric change to purple formazan crystals, and the change in absorbance can be measured as an indicator of cell viability/proliferation. For these experiments, cells were plated into 96-well flat-bottom plates, as described in the cell culture above. […] To align with our previous work, experiments were conducted with a 72 h time frame for cytotoxicity evaluation.\n(§5) After a 72 h incubation period, plates were removed from the incubator and 10 µL of MTT was added to each well. The plates were returned to the incubator for an additional 4 h, after which 100 µL of a solubilization solution was added to each well. The plates were returned to incubation overnight, and the next day absorbances were read at 570 nm on a Molecular Devices FlexStation 3 using SoftMax Pro Microplate Data Acquisition and Analysis Software (version 7.0.2)."}, "[4]": {"test_system": "U-87 MG human glioblastoma cells", "assay": "cells", "details": "read-out: IC50 (μM) ± S.D.; U-87 MG, MTT, 72 h, 6000 cells/well, cyclotides 0.1-10 μM, TMZ 0.5-5000 μM, best fit nonlinear regression, triplicate wells, n = 3", "procedure": "as §1, §2, §3, §4, §5"}, "[5]": {"test_system": "anaplastic large cell lymphoma (ALCL)", "details": "mouse model of anaplastic large cell lymphoma; cited from earlier work", "excerpt": "(§6) The development of an in vivo mouse model is vital, yet it requires expertise, significant finances, and large quantities of the target cyclotide. […] A mouse model of anaplastic large cell lymphoma (ALCL) was developed, and the Kalata B1 mutant, named [T20K] Kalata B1, decreased tumor weight and increased ..."}, "interleukin-2 (IL-2)": {"test_system": "interleukin-2 (IL-2)", "details": "cited from earlier work", "excerpt": "Although a mechanistic evaluation of Kalata B1 bioactivity was beyond the scope of this research, a brief discussion of the previous mechanistic studies is justified. For instance, Henriques and colleagues provided supporting evidence that cyclotides can target phosphatidylethanolamine (PE)-enriched phospholipids and penetrate the cell via both endocytosis and membrane translocation."}, "U-251 glioblastoma cells": {"test_system": "U-251 glioblastoma cells", "details": "MTT; cited from earlier work"}, "glioblastoma cells": {"test_system": "glioblastoma cells", "details": "cytotoxicity; ref Our previous research; cited from earlier work"}, "U-87 MG cells": {"test_system": "U-87 MG cells", "details": "U-87 MG; cited from earlier work"}, "mice": {"test_system": "mice", "details": "cited from earlier work", "excerpt": "as §6"}, "[6]": {"test_system": "primary human brain endothelial cells", "details": "SYTOX green assay; cited from earlier work", "excerpt": "Challenges commonly associated with treating cancer can include low drug uptake across the cellular lipid bilayer, the activity of pumps, such as p-glycoprotein, that efflux drugs out of the cell, and the impenetrability of the blood–brain barrier. Our previous research provided supporting evidence that cyclotides such as CyO2 can act as adjuvants in drug-resistant breast cancer cells, whereby cyclotides sensitize human breast adenocarcinoma (MCF-7) and drug-resistant human breast adenocarcinoma (MCF-7/ADR) cells to the FDA-approved anti-cancer drug, doxorubicin. In that case, one ..."}, "U-87 glioblastoma cells": {"test_system": "U-87 glioblastoma cells", "details": "MTT; cited from earlier work"}},
  "data": [
    {"compound": "CC(C)C[C@@H]1NC(=O)CNC(=O)[C@H](CC(N)=O)NC(=O)[C@H](CCCNC(=N)N)NC(=O)[C@H]([C@@H](C)O)NC(=O)[C@@H]2CSSC[C@@H]3NC(=O)[C@H]([C@@H](C)O)NC(=O)CNC(=O)CNC(=O)[C@H](C(C)C)NC(=O)[C@@H]4CSSC[C@H](NC(=O)[C@H]([C@@H](C)O)NC(=O)[C@H](CSSC[C@H](NC(=O)[C@H](C(C)C)NC(=O)[C@@H]5CCCN5C1=O)C(=O)NCC(=O)N[C@@H](CCC(=O)O)C(=O)N[C@@H]([C@@H](C)O)C(=O)N4)NC(=O)CNC(=O)[C@@H]1CCCN1C(=O)[C@H]([C@@H](C)O)NC(=O)[C@H](CC(N)=O)NC3=O)C(=O)N[C@@H](CO)C(=O)N[C@@H](Cc1c[nH]c3ccccc13)C(=O)N1CCC[C@H]1C(=O)N[C@@H](C(C)C)C(=O)N2", "note": "[Kalata B1 (synthetic), Kalata B1]", "values": [
      {"measurement": "Fold lower TMZ concentration than TMZ IC50 still giving significant cytotoxicity on co-exposure", "setting": "[1]", "value": 16, "unit": "fold"},
      {"measurement": "Stability in human serum (in words)", "setting": "[2]; data points of 3 h, 8 h and 24 h, human serum from male AB plasma, 300 µM stock diluted 10 times, UPLC-MS peak area vs control, triplicate, listed as synthetic Kalata B1", "value": "remains stable"},
      {"measurement": "Time for which the peptide remains stable in human serum", "setting": "[2]; human serum isolated from male AB plasma, UPLC-MS", "value": "at least 24 h"},
      {"measurement": "IC50", "setting": "[3]", "value": "2.6 ± 0.24", "unit": "µM"},
      {"measurement": "IC50", "setting": "[4]", "value": "5.4 ± 1.06", "unit": "µM"}
    ]},
    {"compound": "[T20K] Kalata B1: a Kalata B1 mutant (cyclo(GLPVCGETCVGGTCNTPGCKCSWPVCTRN); disulfide (positions not given here); ends not checked; also: disulfides, places not given here; UniProt P56254 89-117, looked up, variant T20K)", "values": [
      {"measurement": "Anti-tumor effect in ALCL mouse model", "setting": "[5]", "value": "decreased tumor weight and increased apoptosis"},
      {"measurement": "Effect on IL-2 expression, IL-2 cytokine secretion and IL-2 gene expression", "setting": "interleukin-2 (IL-2)", "value": "could decrease"}
    ]},
    {"compound": "Cycloviolacin O2 [CyO2]", "values": [
      {"measurement": "IC50", "setting": "U-251 glioblastoma cells", "value": 790, "unit": "nM"},
      {"measurement": "IC50", "setting": "glioblastoma cells", "value": 4500, "unit": "nM"},
      {"measurement": "Fold less TMZ required for significant cell death on co-exposure with the cyclotide", "setting": "U-87 MG cells", "value": 8, "unit": "fold"},
      {"measurement": "In vivo toxicity at 1.5 mg/kg", "setting": "mice; mice treated with 1.5 mg/kg in tumor mouse models", "value": "no signs of discomfort"},
      {"measurement": "In vivo toxicity, single injection at 2 mg/kg", "setting": "mice; mice, single injection 2 mg/kg", "value": "lethal"},
      {"measurement": "Membrane disruption", "setting": "[6]", "value": "did not produce significant membrane disruption"},
      {"measurement": "IC50", "setting": "U-87 glioblastoma cells", "value": 450, "unit": "nM"}
    ]}
  ]
}
